Experimental data as given in patent US20250154145A1, “OXER1 ANTAGONISTS AND USES THEREOF” (Fairhaven Pharmaceuticals Ins., priority 2021, published 2025).

Columns and labels:
[1] = test system: neutrophils; experiment: Neutrophil calcium flux assay (5-OXO-ETE-stimulated, Indo-1 fluorescence); assay type: cell-based; conditions: 5-OXO-ETE-stimulated calcium flux
Outline: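 Indo-1-loaded neutrophils (5×10^6 cells/ml, 30 min at 37 °C) in HBSS with Ca/Mg and HEPES, pre-incubated 5 min with antagonist or buffer. Stimulated with 5-OXO-ETE added at 200 nM (4× stock); fluorescence (ex 331/em 410 nm) read every 5 s for 30 cycles, expressed as net fluorescence.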

[2] = target: T1, Human OXER1 (Homo sapiens, UniProt Q8TDS5); experiment: BRET early endosome trafficking assay (OXER1-Rluc8 / rGFP-FYVE in HEK293 cells); assay type: cell-based; conditions: HEK293 cells transfected with OXER1-Rluc8 and rGFP-FYVE, 5-oxo-ETE agonist
T1 construct: host or cells: HEK293 cells, transient transfection
Text: Background—The following assay can be used for determination of OXER1 activation in living HEK293 cells. Signalling functions of GPCRs are tightly regulated by endocytosis, the targeting of receptors to endosomes and their sorting to lysosomes or recycling to the plasma membrane. The early endosomes (EEs) trafficking assay (Namkung et al., Monitoring G protein-coupled receptor and β-arrestin trafficking in live cells using enhanced bystander BRET, Nat Commun 2016, 7: 12178) uses Rluc8-tagged OXER1 and Renilla GFP (rGFP) attached to the FYVE domain from human endofin/zinc finger FYVE domain-containing protein 16, which binds phosphatidylinositol 3-phosphate in EEs. Agonist stimulation of OXER1-Rluc8 leads to trafficking of the receptor to EEs, and ensuing increase of the donor concentration relative to the rGFP-FYVE acceptor anchored in the same cellular compartment, and thus results in an increase in BRET signal.
Plasmids—Human OXER1 VersaClone cDNA was obtained from R&D Systems. Rluc8 (A55T, C124A, S130A, K136R, A143M, M185V, M253L, and S287L variant of theRenilla renformis luciferase) gBlocks gene fragment (Integrated DNA Technologies, IA) was inserted with linker in frame at the C-terminus of OXER1. The FYVE domain from human endofin (residues Q739 to K806) attached in frame at the C terminus of a humanized Renilla GFP (rGFP), were synthesized as gBlocks gene fragments.
Bioluminescence Resonance Energy Transfer (BRET) Measurement—HEK293 cells were transfected with OXER1-Rluc8 and rGFP-FYVE. The following day, transiently transfected cells were seeded in 96-well white clear bottom microplates coated with poly-D-lysine and left in culture for 24 hours. Cells were washed once with Tyrode's buffer (140 mmol/L NaCl, 1 mmol/L CaCl2, 2.7 mmol/L KCl, 0.49 mmol/L MgCl2, 0.37 mmol/L NaH2PO4, 5.6 mmol/L glucose, 12 mmol/L NaHCO3, and 25 mmol/L HEPES, pH 7.5) before performing assays in Tyrode's buffer. Test compounds were incubated with cells for 15 minutes at 37° C. before addition of […] of the OXER1 agonist 5-oxo-6E,8Z,1IZ,14Z-eicosatetraenoic acid (5-oxo-ETE) for 45 minutes at 37° C. The Rluc8 substrate coelenterazine 400A (Prolume, Lakeside, AZ) was added at a final concentration of […] and BRET readings were collected using a Spark or Infinite M1000 microplate reader (Tecan, Morrisville, NC). BRET^2 readings between Rluc8 and rGFP were collected by sequential integration of the signals detected in the 370 to 450 nm (Rluc8) and 510 to 540 nm (rGFP) windows. The BRET signal was calculated as the ratio of light emitted by acceptor (rGFP) over the light emitted by donor (Rluc8). Ligand-promoted net BRET values were calculated by subtracting vehicle-induced net BRET from ligand-induced net BRET.

T1 sequence (Q8TDS5 whole entry): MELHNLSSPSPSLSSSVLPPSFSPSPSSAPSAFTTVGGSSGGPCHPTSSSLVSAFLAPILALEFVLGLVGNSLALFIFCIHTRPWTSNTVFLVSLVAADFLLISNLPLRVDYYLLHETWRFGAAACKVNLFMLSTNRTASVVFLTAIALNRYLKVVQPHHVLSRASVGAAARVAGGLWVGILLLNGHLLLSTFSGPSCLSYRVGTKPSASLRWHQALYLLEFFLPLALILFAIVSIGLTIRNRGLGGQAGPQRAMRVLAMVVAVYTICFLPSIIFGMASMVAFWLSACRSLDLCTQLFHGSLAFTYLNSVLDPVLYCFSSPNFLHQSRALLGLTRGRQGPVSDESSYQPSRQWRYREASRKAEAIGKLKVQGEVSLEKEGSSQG

SMILES | IC50 ([1]; Neutrophil) [nM] | IC50 [2] [nM] | IC50 [1] [nM]
C[C@@H](CC(=O)O)CC(=O)c1c(CCCCCCc2cccc(Cl)c2)n(C)c2ccc(Cl)cc12 [Compound I-1] | > 300 | 100 to 300 | –
C[C@H](CC(=O)O)CC(=O)c1c(CCCCCCc2cccc(Cl)c2)n(C)c2ccc(Cl)cc12 [Compound I-2] | < 100 | < 100 | –
C[C@H](CC(=O)O)CC(=O)c1c([C@@H](O)CCCCCc2cccc(Cl)c2)n(C)c2ccc(Cl)cc12 [Compound I-3] | > 300 | < 100 | –
C[C@@H](CC(=O)O)CC(=O)c1c([C@@H](O)CCCCCc2cccc(Cl)c2)n(C)c2ccc(Cl)cc12 [Compound I-4] | > 300 | > 300 | –
C[C@H](CC(=O)O)CC(=O)c1c([C@H](O)CCCCCc2cccc(Cl)c2)n(C)c2ccc(Cl)cc12 [Compound I-5] | > 300 | > 300 | –
C[C@@H](CC(=O)O)CC(=O)c1c([C@H](O)CCCCCc2cccc(Cl)c2)n(C)c2ccc(Cl)cc12 [Compound I-6] | > 300 | > 300 | –
C[C@H](CC(=O)O)CC(=O)c1c(CCCCCCc2ccccc2)n(C)c2ccc(Cl)cc12 [Compound I-7] | < 100 | < 100 | –
C[C@@H](CC(=O)O)CC(=O)c1c(CCCCCCc2ccccc2)n(C)c2ccc(Cl)cc12 [Compound I-8] | > 300 | > 300 | –
C[C@H](CC(=O)O)CC(=O)c1c(CCCCCCc2cccc(F)c2)n(C)c2ccc(Cl)cc12 [Compound I-9] | < 100 | < 100 | –
C[C@H](CC(=O)O)CC(=O)c1c(CCCCCCc2ccc(O)cc2)n(C)c2ccc(Cl)cc12 [Compound I-10] | < 100 | < 100 | –
CCCCCCc1c(C(=O)C[C@H](C)CC(=O)O)c2cc(Cl)ccc2n1C [Compound I-11] | 100 to 300 | 100 to 300 | –
C[C@@H](CC(=O)c1c(CCCCCCc2cccc(Cl)c2)n(C)c2ccc(Cl)cc12)Cc1nnn[nH]1 [Compound I-13] | < 100 | < 100 | –
C[C@H](CC(=O)NS(C)(=O)=O)CC(=O)c1c(CCCCCCc2cccc(Cl)c2)n(C)c2ccc(Cl)cc12 [Compound I-14] | 100 to 300 | 100 to 300 | –
C[C@H](CC(=O)NO)CC(=O)c1c(CCCCCCc2cccc(Cl)c2)n(C)c2ccc(Cl)cc12 [Compound I-17] | > 300 | > 300 | –
CONC(=O)C[C@@H](C)CC(=O)c1c(CCCCCCc2cccc(Cl)c2)n(C)c2ccc(Cl)cc12 [Compound I-19] | > 300 | > 300 | –
CONC(=O)C[C@H](C)CC(=O)c1c(CCCCCCc2cccc(Cl)c2)n(C)c2ccc(Cl)cc12 [Compound I-20] | 100 to 300 | > 300 | –
C[C@H](CC(=O)O)CC(=O)c1c(CCCCCCc2cccc(Cl)c2)oc2ccc(Cl)cc12 [Compound I-21] | > 300 | 100 to 300 | –
C[C@@H](CC(=O)O)CC(=O)c1c(CCCCCCc2cccc(Cl)c2)oc2ccc(Cl)cc12 [Compound I-22] | > 300 | 100 to 300 | –
C[C@H](CC(=O)O)CC(=O)c1c(CCCCCCc2cccc(Cl)c2)sc2ccc(Cl)cc12 [Compound I-23] | 100 to 300 | < 100 | –
C[C@H](CC(=O)O)CC(=O)c1c(CCCCO[C@H](C)c2ccccc2)n(C)c2ncc(C#N)cc12 [Compound I-434] | < 100 | – | –
CC(CC(=O)O)CC(=O)c1c(CCCC(C)OCc2ccccc2)n(C)c2ncc(C#N)cc12 (stereo not drawn) [Compound I-435] | 100 to 300 | – | –
CC(C)[C@H](CC(=O)O)CC(=O)c1c(CCCCOCc2ccccc2)n(C)c2ncc(C#N)cc12 [Compound I-436] | > 300 | – | –
CC(C)[C@@H](CC(=O)O)CC(=O)c1c(CCCCOCc2ccccc2)n(C)c2ncc(C#N)cc12 [Compound I-437] | > 300 | – | –
CC[C@H](CC(=O)O)CC(=O)c1c(CCCCOCc2ccccc2)n(C)c2ncc(C#N)cc12 [Compound I-438] | > 300 | – | –
CC[C@@H](CC(=O)O)CC(=O)c1c(CCCCOCc2ccccc2)n(C)c2ncc(C#N)cc12 [Compound I-439] | > 300 | – | –

SMILES | IC50 ([1]; Neutrophil) [nM] | IC50 [2] [nM] | IC50 [1] [nM]
Cn1c(CCCCOCc2ccccc2)c(C(=O)CC(CC(=O)O)C(F)(F)F)c2cc(C#N)cnc21 (stereo not drawn) [Compound I-440] | > 300 | – | –
Cn1c(CCCCOCc2ccccc2)c(C(=O)N2CC[C@H](C(=O)O)C2)c2cnccc21 [Compound I-441] | > 300 | – | –
Cn1c(CCCCOCc2cccc(Cl)c2)c(C(=O)N2CC[C@H](C(=O)O)C2)c2cnccc21 [Compound I-442] | > 300 | – | –
CC(CC(=O)O)CC(=O)c1c(CCCCCOCc2cccc(Cl)c2)[nH]c2ccc(C#N)cc12 (stereo not drawn) [Compound I-443] | 100 to 300 | – | –
CC(CC(=O)O)CC(=O)c1c(CCCCOCc2cc(C#N)ccn2)n(C)c2ncc(Cl)cc12 (stereo not drawn) [Compound I-444] | > 300 | – | –
CC(CC(=O)O)CC(=O)c1c(CCCCOCc2cncc(C#N)c2)n(C)c2ncc(Cl)cc12 (stereo not drawn) [Compound I-445] | > 300 | – | –
COc1cc(COCCCCc2c(C(=O)CC(C)CC(=O)O)c3cc(Cl)cnc3n2C)ccn1 (stereo not drawn) [Compound I-446] | > 300 | – | –
COc1cccc(COCCCCc2c(C(=O)CC(C)CC(=O)O)c3cc(Cl)cnc3n2C)n1 (stereo not drawn) [Compound I-447] | > 300 | – | –
COc1nccc(COCCCCc2c(C(=O)CC(C)CC(=O)O)c3cc(Cl)cnc3n2C)n1 (stereo not drawn) [Compound I-448] | > 300 | – | –
COC(=O)C[C@@H](C)CC(=O)c1c(CCCCOCc2ccccc2)n(C)c2ncc(C#N)cc12 [Compound I-449] | > 300 | – | –
Cc1ccccc1COCCCCc1c(C(=O)CC(C)CC(=O)O)c2cc(C#N)cnc2n1C (stereo not drawn) [Compound I-450] | > 300 | – | –
C[C@H](OCCCCc1c(C(=O)N2CC[C@H](C(=O)O)C2)c2cc(C#N)cnc2n1C)c1ccccc1 [Compound I-453] | > 300 | – | –
C[C@H](OCCCCc1c(C(=O)N2CC[C@H](C(=O)O)[C@H]2C)c2cc(C#N)cnc2n1C)c1ccccc1 [Compound I-454] | > 300 | – | –
Cn1c(CCCCCCC#CC2CC(F)(F)C2)c(C(=O)N2CC[C@H](c3noc(=O)[nH]3)C2)c2cc(C#N)cnc21 [Compound I-456] | > 300 | – | –
Cn1c(CCCCCCC#CC2CC(F)(F)C2)c(C(=O)N2CC[C@H](c3noc(=O)[nH]3)C2)c2cc(Br)cnc21 [Compound I-457] | > 300 | – | –
C[C@H](CC(=O)NCC(=O)O)CC(=O)c1c(CCCCOCc2ccccc2)n(C)c2ncc(C#N)cc12 [Compound I-459] | > 300 | – | –
C[C@H](CC(=O)N[C@@H](CCC(N)=O)C(=O)O)CC(=O)c1c(CCCCOCc2ccccc2)n(C)c2ncc(C#N)cc12 [Compound I-460] | > 300 | – | –
C[C@H](CC(=O)NCCS(=O)(=O)O)CC(=O)c1c(CCCCOCc2ccccc2)n(C)c2ncc(C#N)cc12 [Compound I-461] | > 300 | – | –
Cn1c(CCCCCCC#CC2CC(F)(F)C2)c(C(=O)N2CC[C@H](C(=O)NCC(=O)O)C2)c2cc(C#N)cnc21 [Compound I-462] | > 300 | – | –
Cn1c(CCCCCCC#CC2CC(F)(F)C2)c(C(=O)N2CC[C@H](C(=O)N[C@@H](CCC(N)=O)C(=O)O)C2)c2cc(C#N)cnc21 [Compound I-463] | > 300 | – | –
Cn1c(CCCCCCC#CC2CC(F)(F)C2)c(C(=O)N2CC[C@H](C(=O)NCCS(=O)(=O)O)C2)c2cc(C#N)cnc21 [Compound I-464] | > 300 | – | –
CC(C)[C@H](NC(=O)C[C@@H](C)CC(=O)c1c(CCCCOCc2ccccc2)n(C)c2ncc(C#N)cc12)C(=O)O [Compound I-466] | > 300 | – | –
C[C@H](CC(=O)N[C@@H](Cc1ccccc1)C(=O)O)CC(=O)c1c(CCCCOCc2ccccc2)n(C)c2ncc(C#N)cc12 [Compound I-467] | > 300 | – | –
CC(CC(=O)O)CC(=O)n1c(CCCCCCc2cccc(Cl)c2)cc2ncc(Cl)cc21 (stereo not drawn) [Compound I-468] | – | – | > 300
C[C@@H](CC(=O)O)CC(=O)c1c(CCCCOCc2cccc(Cl)c2)n(C)c2ccc(C#N)cc12 [Compound I-469] | 100 to 300 | – | –
